Reference: patent US20260001928A1 (CORTERIA PHARMACEUTICALS, priority 2022, published 2026)
*1 amine or outer side, *2 acyl side, *3 side chain or, on linkers, in order; H or OH if unused. Where a SMILES comes first, the peptide text is derived from it. Side-chain parts run from the residue outwards. [ ]: non-standard residue; d: D form. The star is where a group is joined. C18 diacid = O=C(O)CCCCCCCCCCCCCCCCC(=O)*; C16 diacid = O=C(O)CCCCCCCCCCCCCCC(=O)*; γGlu = O=C(O)[C@H](CCC(=O)[*:2])N[*:1]; NMeI = CC[C@H](C)[C@H](NC)C(=O)O; AEEA = NCCOCCOCC(=O)O; Aib = CC(C)(N)C(=O)O

Tested on: human LAD2 cells
Format: cell-based
Experimental: LAD2 cells (20000 cells/well, 96-well plates and 10,000 cells/well in 384-well plates) were incubated with compounds for 30 min. The R-hexosaminidase released into the supernatants and in cell lysates was quantified using the fluorogenic substrate 4-methylumbelliferyl-N-acetyl-b-D-glucosaminide.
On the day of the assay, the lyophilized peptides were dissolved in DMSO and/or PBS 1× pH 7.4, to obtain stock solutions. The stock solutions were used to prepare working serial dilutions to have final concentrations in assay ranging from 50, 100 or 300 to 0.1 or 0.001 μM. Each peptide was tested in biological duplicates. When compounds were dissolved in DMSO, the final solvent concentration in assay was 0.5% (v/v).
The percentage of degranulation, expressed as % of R-hexosaminidase release, was calculated by dividing the fluorescence signal of the supernatant by the sum of the signals from the supernatant and cell pellet (lysed with Triton X-100, final 1%) and multiplying by 100.
Dose-response curves were generated by plotting the % of R-hexosaminidase release versus total release of cells treated with triton (y-axis) against the concentrations of peptides tested (x-axis). The Mast Cell Degranulation (MCD) EC50 values and standard errors were calculated using XLfit 5.5.0.5 based on the following equation:
4 Parameter Sigmoidal Model: f=(A+((B−A)/(1+((C/x)^D))))
where A=Emin, B=Emax, C=EC50 and D=slope

| EC50 [µM] | Compound |
| --- | --- |
| 32.9 | CC[C@H](C)[C@H](N)C(=O)N[C@H](C(=O)N[C@@H](CC(C)C)C(=O)N[C@@H](CO)C(=O)N[C@@H](CC(C)C)C(=O)N[C@@H](CC(=O)O)C(=O)N[C@H](C(=O)N1CCC[C@H]1C(=O)N[C@H](C(=O)N[C@@H](CCCCN)C(=O)N[C@@H](CC(C)C)C(=O)N[C@@H](CCCCNC(=O)CC[C@H](NC(=O)CCCCCCCCCCCCCCC(=O)O)C(=O)O)C(=O)N[C@@H](CCC(N)=O)C(=O)N[C@H](C(=O)N[C@@H](CC(C)C)C(=O)N[C@@H](CC(C)C)C(=O)N[C@@H](CCCCN)C(=O)N[C@@H](CCC(N)=O)C(=O)N[C@@H](CCC(=O)O)C(=O)N[C@@H](CCCNC(=N)N)C(=O)N[C@@H](CCC(N)=O)C(=O)N[C@@H](CCCCN)C(=O)N[C@@H](CCCCN)C(=O)N[C@@H](CCC(N)=O)C(=O)N[C@@H](CCCNC(=N)N)C(=O)N[C@@H](CCC(=O)O)C(=O)N[C@@H](CCC(N)=O)C(=O)N[C@@H](C)C(=O)N[C@@H](CCC(=O)O)C(=O)N[C@@H](CCCCN)C(=O)N[C@@H](CC(N)=O)C(=O)N[C@@H](CCCCN)C(=O)N[C@@H](CCC(N)=O)C(=O)N[C@H](C(=O)N[C@@H](CC(C)C)C(=O)N[C@@H](CCC(=O)O)C(=O)N[C@@H](CCC(N)=O)C(=O)N[C@H](C(N)=O)C(C)C)[C@@H](C)CC)[C@@H](C)CC)[C@@H](C)CC)C(C)C)C(C)C [151 (comp)] (H-IVLSLDVPIKLK([γGlu-C16 diacid])QILLKQERQKKQREQAEKNKQILEQV-NH2) |
| > 100 | CC[C@H](C)[C@H](NC)C(=O)N[C@H](C(=O)N[C@@H](CC(C)C)C(=O)N[C@@H](CO)C(=O)N[C@@H](CC(C)C)C(=O)N[C@@H](CC(=O)O)C(=O)N[C@@H](C(=O)N1CCC[C@H]1C(=O)N[C@H](C(=O)N[C@@H](CCCCN)C(=O)N[C@@H](CC(C)C)C(=O)N[C@@H](CCCCNC(=O)COCCOCCNC(=O)COCCOCCNC(=O)CC[C@H](NC(=O)CCCCCCCCCCCCCCCCC(=O)O)C(=O)O)C(=O)N[C@@H](CCCCN)C(=O)N[C@H](C(=O)N[C@@H](CC(C)C)C(=O)N[C@@H](CC(C)C)C(=O)N[C@@H](CCC(=O)O)C(=O)N[C@@H](CCC(N)=O)C(=O)N[C@@H](CCC(=O)O)C(=O)N[C@@H](CCCCN)C(=O)N[C@@H](CCC(N)=O)C(=O)N[C@@H](CCCCN)C(=O)N[C@@H](CCCCN)C(=O)N[C@@H](CCC(N)=O)C(=O)N[C@@H](CCCNC(=N)N)C(=O)N[C@@H](CCC(=O)O)C(=O)N[C@@H](CCC(N)=O)C(=O)N[C@@H](C)C(=O)N[C@@H](CCC(=O)O)C(=O)N[C@H](C(=O)N[C@@H](CC(N)=O)C(=O)NC(C)(C)C(=O)N[C@@H](CCC(N)=O)C(=O)N[C@H](C(=O)N[C@@H](CC(C)C)C(=O)N[C@@H](C)C(=O)N[C@@H](CCC(N)=O)C(=O)N[C@H](C(N)=O)C(C)C)[C@@H](C)CC)[C@@H](C)O)[C@@H](C)CC)[C@@H](C)CC)C(C)C)C(C)C [Cmpd 118] (H-[NMeI]VLSLD[dV]PIKLK([AEEA-AEEA-γGlu-C18 diacid])KILLEQEKQKKQREQAETN[Aib]QILAQV-NH2) |
| > 100 | CC[C@H](C)[C@H](NC(C)=O)C(=O)N[C@H](C(=O)N[C@@H](CC(C)C)C(=O)N[C@@H](CO)C(=O)N[C@@H](CC(C)C)C(=O)N[C@@H](CC(=O)O)C(=O)N[C@@H](C(=O)N1CCC[C@H]1C(=O)N[C@H](C(=O)N[C@@H](CCCCN)C(=O)N[C@@H](CC(C)C)C(=O)N[C@@H](CCCCNC(=O)CC[C@H](NC(=O)CCCCCCCCCCCCCCCCC(=O)O)C(=O)O)C(=O)N[C@@H](CCCCN)C(=O)N[C@H](C(=O)N[C@@H](CC(C)C)C(=O)N[C@@H](CC(C)C)C(=O)N[C@@H](CCC(=O)O)C(=O)N[C@@H](CCC(N)=O)C(=O)N[C@@H](CCC(=O)O)C(=O)N[C@@H](CCCCN)C(=O)N[C@@H](CCC(N)=O)C(=O)N[C@@H](CCCCN)C(=O)N[C@@H](CCCCN)C(=O)N[C@@H](CCC(N)=O)C(=O)N[C@@H](CCCNC(=N)N)C(=O)N[C@@H](CCC(=O)O)C(=O)N[C@@H](CCC(N)=O)C(=O)N[C@@H](C)C(=O)N[C@@H](CCC(=O)O)C(=O)N[C@H](C(=O)N[C@@H](CC(N)=O)C(=O)NC(C)(C)C(=O)N[C@@H](CCC(N)=O)C(=O)N[C@H](C(=O)N[C@@H](CC(C)C)C(=O)N[C@@H](C)C(=O)N[C@@H](CCC(N)=O)C(=O)N[C@H](C(N)=O)C(C)C)[C@@H](C)CC)[C@@H](C)O)[C@@H](C)CC)[C@@H](C)CC)C(C)C)C(C)C [Cmpd 125] (Ac-IVLSLD[dV]PIKLK([γGlu-C18 diacid])KILLEQEKQKKQREQAETN[Aib]QILAQV-NH2) |
| > 100 | CC[C@H](C)[C@H](NC)C(=O)N[C@H](C(=O)N[C@@H](CC(C)C)C(=O)N[C@@H](CO)C(=O)N[C@@H](CC(C)C)C(=O)N[C@@H](CC(=O)O)C(=O)N[C@@H](C(=O)N1CCC[C@H]1C(=O)N[C@H](C(=O)N[C@@H](CCCCN)C(=O)N[C@@H](CC(C)C)C(=O)N[C@@H](CCCCNC(=O)CC[C@H](NC(=O)CCCCCCCCCCCCCCCCC(=O)O)C(=O)O)C(=O)N[C@@H](CCCCN)C(=O)N[C@H](C(=O)N[C@@H](CC(C)C)C(=O)N[C@@H](CC(C)C)C(=O)N[C@@H](CCC(=O)O)C(=O)N[C@@H](CCC(N)=O)C(=O)N[C@@H](CCC(=O)O)C(=O)N[C@@H](CCCCN)C(=O)N[C@@H](CCC(N)=O)C(=O)N[C@@H](CCCCN)C(=O)NC(C)(C)C(=O)N[C@@H](CCC(N)=O)C(=O)N[C@@H](CCCNC(=N)N)C(=O)N[C@@H](CCC(=O)O)C(=O)N[C@@H](CCC(N)=O)C(=O)N[C@@H](C)C(=O)N[C@@H](CCC(=O)O)C(=O)N[C@H](C(=O)N[C@@H](CC(N)=O)C(=O)NC(C)(C)C(=O)N[C@@H](CCC(N)=O)C(=O)N[C@H](C(=O)N[C@@H](CC(C)C)C(=O)N[C@@H](C)C(=O)N[C@@H](CCC(N)=O)C(=O)N[C@H](C(N)=O)C(C)C)[C@@H](C)CC)[C@@H](C)O)[C@@H](C)CC)[C@@H](C)CC)C(C)C)C(C)C [Cmpd 145] (H-[NMeI]VLSLD[dV]PIKLK([γGlu-C18 diacid])KILLEQEKQK[Aib]QREQAETN[Aib]QILAQV-NH2) |
| > 50 | CC[C@H](C)[C@H](NC(C)=O)C(=O)N[C@H](C(=O)N[C@@H](CC(C)C)C(=O)N[C@@H](CO)C(=O)N[C@@H](CC(C)C)C(=O)N[C@@H](CC(=O)O)C(=O)N[C@@H](C(=O)N1CCC[C@H]1C(=O)N[C@H](C(=O)N[C@@H](CCCCN)C(=O)N[C@@H](CC(C)C)C(=O)N[C@@H](CCCCNC(=O)CC[C@H](NC(=O)CCCCCCCCCCCCCCC(=O)O)C(=O)O)C(=O)N[C@@H](CCCCN)C(=O)N[C@H](C(=O)N[C@@H](CC(C)C)C(=O)N[C@@H](CC(C)C)C(=O)N[C@@H](CCC(=O)O)C(=O)N[C@@H](CCC(N)=O)C(=O)N[C@@H](CCC(=O)O)C(=O)N[C@@H](CCCCN)C(=O)N[C@@H](CCC(N)=O)C(=O)N[C@@H](CCCCN)C(=O)N[C@@H](C)C(=O)N[C@@H](CCC(N)=O)C(=O)N[C@@H](CCCNC(=N)N)C(=O)N[C@@H](CCC(=O)O)C(=O)N[C@@H](CCC(N)=O)C(=O)N[C@@H](C)C(=O)N[C@@H](CCC(=O)O)C(=O)N[C@H](C(=O)N[C@@H](CC(N)=O)C(=O)NC(C)(C)C(=O)N[C@@H](CCC(N)=O)C(=O)N[C@H](C(=O)N[C@@H](CC(C)C)C(=O)N[C@@H](C)C(=O)N[C@@H](CCC(N)=O)C(=O)N[C@H](C(N)=O)C(C)C)[C@@H](C)CC)[C@@H](C)O)[C@@H](C)CC)[C@@H](C)CC)C(C)C)C(C)C [Cmpd 161] (Ac-IVLSLD[dV]PIKLK([γGlu-C16 diacid])KILLEQEKQKAQREQAETN[Aib]QILAQV-NH2) |
| > 50 | CC[C@H](C)[C@H](NC(C)=O)C(=O)N[C@H](C(=O)N[C@@H](CC(C)C)C(=O)N[C@@H](CO)C(=O)N[C@@H](CC(C)C)C(=O)N[C@@H](CC(=O)O)C(=O)N[C@@H](C(=O)N1CCC[C@H]1C(=O)N[C@H](C(=O)N[C@@H](CCCCN)C(=O)N[C@@H](CC(C)C)C(=O)N[C@@H](CCCCNC(=O)CC[C@H](NC(=O)CCCCCCCCCCCCCCC(=O)O)C(=O)O)C(=O)N[C@@H](CCCCN)C(=O)N[C@H](C(=O)N[C@@H](CC(C)C)C(=O)N[C@@H](CC(C)C)C(=O)N[C@@H](CCC(=O)O)C(=O)N[C@@H](CCC(N)=O)C(=O)N[C@@H](CCC(=O)O)C(=O)N[C@@H](CCCCN)C(=O)N[C@@H](CCC(N)=O)C(=O)N[C@@H](CCCCN)C(=O)NC(C)(C)C(=O)N[C@@H](CCC(N)=O)C(=O)N[C@@H](CCCNC(=N)N)C(=O)N[C@@H](CCC(=O)O)C(=O)N[C@@H](CCC(N)=O)C(=O)N[C@@H](C)C(=O)N[C@@H](CCC(=O)O)C(=O)N[C@H](C(=O)N[C@@H](CC(N)=O)C(=O)NC(C)(C)C(=O)N[C@@H](CCC(N)=O)C(=O)N[C@H](C(=O)N[C@@H](CC(C)C)C(=O)N[C@@H](C)C(=O)N[C@@H](CCC(N)=O)C(=O)N[C@H](C(N)=O)C(C)C)[C@@H](C)CC)[C@@H](C)O)[C@@H](C)CC)[C@@H](C)CC)C(C)C)C(C)C [Cmpd 162] (Ac-IVLSLD[dV]PIKLK([γGlu-C16 diacid])KILLEQEKQK[Aib]QREQAETN[Aib]QILAQV-NH2) |
